Laboratory results reported in patent publication US20230190697A1, “METHODS FOR TREATING VIRAL INFECTIONS WITH NAFAMOSTAT” (priority 2020, published 2023).
Where “and” joins values, the source holds several entries; their conditions need not be identical. Equal values may be shown once. Entries after “also recorded” stand apart in the source; their conditions may differ. Read-outs that look alike come from different tables or passages of the source.

Key:
[1] = Pharmacokinetics of oral nafamostat mesylate solution in healthy male and female subjects; type: in vivo, human
Procedure: Part 1: Single Ascending Dose Study. Male and female subjects aged 18 - 70 were administered a single dose of 50 mg nafamostat mesylate on day 1, 100 mg nafamostat mesylate on day 3 or 4, and 200 mg nafamostat mesylate on day 5, 6, or 7. Nafamostat mesylate was administered in the form of an oral solution. […]
Part 2: Multiple Ascending Dose Study. Subjects were divided into 2 cohorts. Cohort 1 received an oral solution of 100 mg/mL nafamostat mesylate twice a day for 5 days with pharmacokinetic evaluations on each day. […] Safety evaluations continued for 48 hours after the last dose. After review and evidence of safety, Cohort 2 received an oral solution of 200 mg/mL nafamostat mesylate twice a day for 5 days with pharmacokinetic evaluations on each day. […] Safety evaluations continued for 48 hours after the last dose.
Part 3: Single Fixed Dose Administered Twice Daily for 5 Days. Six subjects, different than the subjects from Parts 1 and 2, received an oral solution of 200 mg/mL nafamostat mesylate twice a day for 5 days. Blood samples were obtained at pre-dose (0 hr.) and at 0.5, 1, 2, 3, 4, 6, and 8 hours after the first dose on Day 1 and again after the first dose on Day 5. […]
Oral solutions received by each subject were prepared by dissolving nafamostat mesylate in about 100 mL of EMETROL®/water and provided at a volume to deliver the indicated dosage. There was no placebo formulation.
Nafamostat pharmacokinetics was evaluated at the 200 mg dose levels.

hERG K+ channel = hERG K+ channel (Homo sapiens, UniProt Q12809); test: cell-based
Sequence of hERG K+ channel (Q12809 whole entry): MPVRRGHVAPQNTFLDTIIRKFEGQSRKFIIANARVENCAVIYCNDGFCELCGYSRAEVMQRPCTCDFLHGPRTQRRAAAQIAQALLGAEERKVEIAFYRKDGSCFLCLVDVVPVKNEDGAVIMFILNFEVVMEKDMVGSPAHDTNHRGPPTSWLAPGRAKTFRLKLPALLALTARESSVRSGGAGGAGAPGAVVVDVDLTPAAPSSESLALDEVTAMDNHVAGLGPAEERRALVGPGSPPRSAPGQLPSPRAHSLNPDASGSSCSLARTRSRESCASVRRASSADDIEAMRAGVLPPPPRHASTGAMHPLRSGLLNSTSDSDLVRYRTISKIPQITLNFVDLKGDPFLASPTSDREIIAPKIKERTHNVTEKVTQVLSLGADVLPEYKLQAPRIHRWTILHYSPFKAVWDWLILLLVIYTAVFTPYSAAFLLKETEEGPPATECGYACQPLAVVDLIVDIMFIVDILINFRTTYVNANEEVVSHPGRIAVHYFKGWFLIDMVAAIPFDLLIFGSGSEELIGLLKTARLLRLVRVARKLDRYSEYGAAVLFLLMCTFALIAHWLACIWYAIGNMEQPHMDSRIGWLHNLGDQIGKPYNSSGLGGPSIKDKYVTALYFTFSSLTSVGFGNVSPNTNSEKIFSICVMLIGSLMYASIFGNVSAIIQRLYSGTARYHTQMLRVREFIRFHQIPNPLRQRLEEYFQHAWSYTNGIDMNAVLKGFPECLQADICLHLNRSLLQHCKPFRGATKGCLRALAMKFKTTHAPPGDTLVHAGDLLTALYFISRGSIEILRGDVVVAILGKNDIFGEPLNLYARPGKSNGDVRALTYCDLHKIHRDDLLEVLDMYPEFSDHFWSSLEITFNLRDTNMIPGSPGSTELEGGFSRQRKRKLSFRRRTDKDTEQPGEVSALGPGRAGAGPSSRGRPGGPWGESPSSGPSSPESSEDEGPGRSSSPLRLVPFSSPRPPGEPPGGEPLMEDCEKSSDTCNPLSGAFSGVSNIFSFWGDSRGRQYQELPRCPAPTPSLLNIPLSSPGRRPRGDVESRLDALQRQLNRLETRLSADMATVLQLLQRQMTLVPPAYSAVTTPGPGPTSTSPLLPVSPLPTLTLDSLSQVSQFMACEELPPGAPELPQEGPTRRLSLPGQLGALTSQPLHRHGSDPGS
Procedure: Effects of nafamostat in an hERG assay: In an in vitro non-GLP screening study, effects of nafamostat on the hERG K^+ channel currents were evaluated in voltage-clamped human embryonic kidney cells at room temperature. […] A full ICH-Compliant hERG study and in vivo cardiovascular safety pharmacology study is be performed as part of the IND-enabling program.

[2] = tested on: healthy male and female subjects; test: Safety and tolerability (adverse events) of oral nafamostat mesylate in healthy subjects; type: in vivo, human
Procedure: Part 1: Single Ascending Dose Study. Male and female subjects aged 18 - 70 were administered a single dose of 50 mg nafamostat mesylate on day 1, 100 mg nafamostat mesylate on day 3 or 4, and 200 mg nafamostat mesylate on day 5, 6, or 7. Nafamostat mesylate was administered in the form of an oral solution. Blood samples were obtained at pre-dose (0 hr.) and at 0.5, 1, 2, 3, 4, 6, 8, 12, and 24 hours after receiving the nafamostat mesylate oral solution.
Part 2: Multiple Ascending Dose Study. Subjects were divided into 2 cohorts. Cohort 1 received an oral solution of 100 mg/mL nafamostat mesylate twice a day for 5 days with pharmacokinetic evaluations on each day. Blood samples were obtained at pre-dose (0 hr.) and at 0.5, 1, 2, 3, 4, 6, 8, 12, and 24 hours after receiving the nafamostat mesylate oral solution as well as after the first dose on Day 5. Safety evaluations continued for 48 hours after the last dose. After review and evidence of safety, Cohort 2 received an oral solution of 200 mg/mL nafamostat mesylate twice a day for 5 days with pharmacokinetic evaluations on each day. Blood samples were obtained at pre-dose (0 hr.) and at 0.5, 1, 2, 3, 4, 6, 8, 12, and 24 hours after receiving the first dose of nafamostat mesylate oral solution as well as after the first dose on Day 5. Safety evaluations continued for 48 hours after the last dose.
Part 3: Single Fixed Dose Administered Twice Daily for 5 Days. Six subjects, different than the subjects from Parts 1 and 2, received an oral solution of 200 mg/mL nafamostat mesylate twice a day for 5 days. Blood samples were obtained at pre-dose (0 hr.) and at 0.5, 1, 2, 3, 4, 6, and 8 hours after the first dose on Day 1 and again after the first dose on Day 5.
Part 4: Single Ascending Dose Study. Three subjects were administered a single dose of an oral solution of 400 mg/mL nafamostat mesylate. After review and evidence of safety, a second set of three subjects received a single dose of an oral solution of 600 mg/mL nafamostat mesylate. Blood samples were obtained for pharmacokinetic analysis at pre-dose (0 hr.) and at 0.25, 0.5, 0.75, 1, 1.5, 2, 2.5, 3, 4, 6, and 8 hours after receiving the nafamostat mesylate dose.
Evaluations of subjects included incidence and severity of adverse events (AEs), vital signs (pulse rate, blood pressure, respiratory rate), 12-lead electrocardiogram, electrocardiogram telemetry or MCOT cardiac patch, continuous pulse oximetry, clinical laboratory tests (CBC-diff, complete metabolic panel including LFTs, PT, PTT), physical examination.

[3] = tested on: S. typhimurium strains TA98, TA100, TA1535, and TA97a and Escherichia coli strain WP2uvrA76; test: Bacterial Reverse Mutation (Ames) Screening Assay; type: cell-based; conditions: with or without S9, up to 25 mg/mL
Procedure: Bacterial Reverse Mutation (Ames) Screening Assay: This in vitro non-GLP study evaluated the cytotoxic and mutagenic activity of nafamostat in S. typhimurium strains TA98, TA100, TA1535, and TA97a and in the Escherichia coli (E. coli) strain WP2uvrA76. Two independent assays were conducted using the plate incorporation method with and without S9 metabolic activation. The highest concentration tested was 25 mg/mL. The vehicle control, sterile saline, was tested under the same conditions.

[4] = Pharmacokinetics of nafamostat in male rats (whole blood, LC/MS/MS); type: in vivo
Procedure: Example 1: Pharmacokinetic Studies. The pharmacokinetics of nafamostat were evaluated in male rats following an intravenous dose of 1 mg/kg or an oral dose of 9 mg/kg or 10 mg/kg. Nafamostat whole blood concentrations were determined by LC/MS/MS. Following intravenous dosing, nafamostat appeared in the blood of rats, with average (± SD) maximum whole blood concentrations (189 ± 54 ng/mL) being reached at the first measured time point (0.0830 hours) in all animals. […] The AUC0-t was 81.8 ± 29 ng̬·h/mL. The pharmacokinetic parameters were generated using a standard, non-compartmental model. Note that the half-life reported in this section is the terminal half-life and the alpha phase half-life is much shorter (estimated to be about 3 minutes).
After oral dosing, nafamostat appeared in the blood for the majority of the rats, with the whole blood concentrations being low and transient. The average (± SD) maximum plasma concentrations were 6.40 ± 6.2 ng/mL and 6.09 ± 3.6 ng/mL for the 9 mg/kg and 10 mg/kg doses, respectively, being reached between 0.250 hours and 0.500 hours. Due to the transient whole blood concentration-time profiles, the terminal t½ could not be calculated in the majority of the subjects but is approximated to be about 3 hours. The AUC0-t was 8.80 ng·h/mL (n=1) and 12.6 ± 11 ng·h/mL (n=3) for the two doses, respectively.

[5] = human, oral, 200 mg dose levels

N=C(N)c1ccc2cc(OC(=O)c3ccc(N=C(N)N)cc3)ccc2c1 [nafamostat]
PK measurements (nafamostat concentration), all except three samples, below LLQ [1, 5]: < 0.1 ng/mL | nafamostat found in the two outlier samples taken after at least one daily dose [1, 5]: 0.125 ng/mL and 0.101 ng/mL | nafamostat detected in blood samples ([1]; oral administration): No nafamostat was detected in blood samples | therapeutically-relevant blood plasma levels ([1]; subjects administered oral nafamostat): Therapeutically-relevant blood plasma levels were not observed | IC50 (hERG K+ channel): > 50 µM | adverse events attributable to nafamostat ([2]; human subjects, oral solution): no adverse events that could be attributed to nafamostat reported | adverse events ([2]; oral, up to 600 mg nafamostat mesylate): no adverse events are observed | Drug-Related? ([2]; per subject (12-17), adverse event): No | Adverse Event ([2]; per subject (12-17), oral nafamostat mesylate solution): Intermittent headache; also recorded: Thrush; also recorded: Tonsillitis right; also recorded: Right thigh redness, swelling; also recorded: Nausea; also recorded: Orthostatic tachycardia* *; also recorded: Chest pain (mild, intermittent) | Severity ([2]; per subject (12-17), severity of adverse event): Mild (4×) and Moderate (3×) | mutagenic activity (mean number of revertants per plate) ([3]; any test strain): no positive increases in the mean number of revertants | cytotoxic activity ([3]; plate incorporation): not cytotoxic | average (± SD) maximum whole blood concentration ([4]; male rats, intravenous 1 mg/kg): 189 ± 54 ng/mL | clearance ([4]; male rats, intravenous 1 mg/kg): high and greater than hepatic blood flow in rats | time of maximum whole blood concentration (first measured time point) ([4]; male rats, intravenous 1 mg/kg): 0.0830 h | average (± SD) maximum plasma concentration ([4]; male rats, oral 9 mg/kg): 6.40 ± 6.2 ng/mL | average (± SD) maximum plasma concentration ([4]; male rats, oral 10 mg/kg): 6.09 ± 3.6 ng/mL | half-life ([4]; male, rat, whole blood, iv, 1 mg/kg, male rats, intravenous 1 mg/kg, estimated, read-out: alpha phase half-life): ~0.05 h | half-life ([4]; male, rat, whole blood, iv, 1 mg/kg, male rats, intravenous 1 mg/kg, non-compartmental, read-out: terminal t½ (converted)): 1.84 ± 1.3 h | half-life ([4]; male, rat, whole blood, po, male rats, oral dosing, approximated, read-out: terminal t½ (converted)): ~3 h | bioavailability ([4]; male, rat, whole blood, rats, oral vs intravenous, read-out: overall absolute oral bioavailability): 1.16 ± 1.1% | AUC(0-t) ([4]; rat, whole blood, male rats, intravenous 1 mg/kg): 81.8 ± 29 ng·h/mL | AUC(0-t) ([4]; rat, whole blood, male rats, oral 9 mg/kg (n=1)): 8.8 ng·h/mL | AUC(0-t) ([4]; rat, whole blood, male rats, oral 10 mg/kg (n=3)): 12.6 ± 11 ng·h/mL
